# “Also recorded” adds a separate entry of the source.
# Key:
# [1] = system: 8505C cells; test: Drug synergy by coefficient of drug interaction (SRB assay); format: cell-based, human; details: for drug interaction with 6-AN (coefficient of drug interaction class): combination with 6-AN (PPP inhibition)
# Experimental: In Vitro Cell Staining for Measuring Drug Efficacy—Thyroid cells (4.0×10^3) were seeded in 96 well plates with 100 μl CTM and allowed to adhere overnight. 100 μl of CTM containing 2× concentration of compound was overlayed in each well for 48 hours unless otherwise indicated. Each well then received 100 μl of 10% w/v cold trichloroacetic acid (Fisher) and incubated at 4° C. for 1 hour to fix the cells. Each well was rinsed 3× with DI H2O and stained with 100 μl 0.057% w/v sulforhodamine B (SRB, Sigma-Aldrich) for 30 minutes at room temperature in the dark. Wells were washed 4× with 300 μl 1% v/v acetic acid (Fisher), and remaining SRB stain was solubilized with 200 μl of 10 mM Tris buffer, pH 10.5 (Fisher). Absorbance was measured at 564 nm with a Synergy 2 Multi-Detection Microplate Reader (Agilent Technologies) and normalized to a vehicle control. Drug synergy was evaluated using the coefficient of drug interaction (CDI) formula: CDI=AB/(A×B)×100, where AB is the percent remaining cells of an indicated combination treatment, A is the average percent remaining cells of agent 1 alone, and B is the average percent remaining cells of agent 2 alone. […] Hao et al., “Effect of Lumiracoxib on Proliferation and Apoptosis of Human Nonsmall Cell Lung Cancer Cells In vitro,” Chin Med J (Engl) 121:602-607 (2008), which is hereby incorporated by reference in its entirety.
# [2] = system: Pancreatic adenocarcinoma cells; details: cited from earlier work
# [3] = system: 8505C cells; test: SRB cell viability assay in ATC cells; format: cell-based, human; details: for cell viability of CP-treated cells with the exogenous agent: 8505C cells treated with CP-91,149
# Experimental: In Vitro Cell Staining for Measuring Drug Efficacy—Thyroid cells (4.0×10^3) were seeded in 96 well plates with 100 μl CTM and allowed to adhere overnight. 100 μl of CTM containing 2× concentration of compound was overlayed in each well for 48 hours unless otherwise indicated. Each well then received 100 μl of 10% w/v cold trichloroacetic acid (Fisher) and incubated at 4° C. for 1 hour to fix the cells. Each well was rinsed 3× with DI H2O and stained with 100 μl 0.057% w/v sulforhodamine B (SRB, Sigma-Aldrich) for 30 minutes at room temperature in the dark. Wells were washed 4× with 300 μl 1% v/v acetic acid (Fisher), and remaining SRB stain was solubilized with 200 μl of 10 mM Tris buffer, pH 10.5 (Fisher). Absorbance was measured at 564 nm with a Synergy 2 Multi-Detection Microplate Reader (Agilent Technologies) and normalized to a vehicle control. Drug synergy was evaluated using the coefficient of drug interaction (CDI) formula: CDI=AB/(A×B)×100, where AB is the percent remaining cells of an indicated combination treatment, A is the average percent remaining cells of agent 1 alone, and B is the average percent remaining cells of agent 2 alone. […] Hao et al., “Effect of Lumiracoxib on Proliferation and Apoptosis of Human Nonsmall Cell Lung Cancer Cells In vitro,” Chin Med J (Engl) 121:602-607 (2008), which is hereby incorporated by reference in its entirety. […]
# [4] = system: 8505C cells; test: Reactive oxygen species quantification (H2DCFDA); format: cell-based, human; details: for ROS in CP-treated cells with the exogenous agent: 8505C cells treated with CP-91,149
# Experimental: Quantification of Reactive Oxygen Species—Thyroid cells (1.0-2.0×10^4) were seeded in a black 96 well plate in 200 μl CTM and allowed to adhere overnight. Wells were washed with PBS and incubated with or without 25 μM H2DCFDA for 45 minutes at 37° C. in a non-CO2 incubator with compounds of interest diluted in phenol-red free RPMI (supplemented with 2 mM glutamine and 10% charcoal-stripped serum). Wells were washed with PBS and received compounds of interest diluted in phenol-red free, supplemented RPMI and incubated at 37° C. in a SpectraMax M4 Microplate Reader (Molecular Devices) to record fluorescent measurements (Ex/Em=485/535 nm) every 15 minutes overnight. Maximum fluorescence intensity was determined (~6 hours), background signal (—H2DCFDA) was subtracted from each group, and corrected values were normalized to the vehicle control.
# [5] = system: 8505C tumors; test: 8505C xenograft tumor growth in nude mice; format: in vivo, mouse; details: intraperitoneal, 50 mg/kg CP-91,149, 10 mg/kg sorafenib, 6-7 days a week
# Experimental: Ethics statement and animal modeling—All animal procedures were approved by Institutional Animal Care and Use Committee (IACUC) at the University of Vermont. All animals were maintained in pathogen-free conditions and cared for in accordance with IACUC policies and certification. All surgeries were performed with isoflurane anesthesia. Temperature-controlled post-surgical monitoring was implemented to minimize suffering. Mice carrying anaplastic thyroid tumors were euthanized at designated time points for tumor collection. Signs of ulceration or a maximum individual tumor size of 2000 mm^3 were used as a protocol-enforced endpoint.
# Mice were given food and water ad libitum. […] These doses were based on previous reports.
# [6] = system: HepG2 cells; details: HepG2 cells; cited from earlier work
# [7] = system: 8505C cells; test: Metabolic flux analysis (Seahorse ECAR and OCR); format: cell-based, human; details: 8505C cells
# Experimental: Metabolic Flux Analysis—Thyroid cells (5.0×10^4) were plated in a 96 well Seahorse culture plate with compounds of interest diluted in 200 μl CTM for 24 hours. Cells were washed with PBS and equilibrated for 1 hour at 37° C. in a non-CO2 incubator with compounds of interest diluted in Seahorse RPMI (supplemented with 11.1 mM glucose, 2 mM glutamine, and 5% serum) before analysis of OCR and ECAR in a Metabolic Flux Analyzer (Seahorse Bioscience, North Billerica, MA 96XP).
# [8] = system: ATC xenograft; details: cited from earlier work
# [9] = system: ATC; details: in vitro; cited from earlier work
# [10] = ATC cell viability, combination with CP-91,149
compound,measurement,setting,value
"CC(=O)c1c(C)c2cnc(Nc3ccc(N4CCNCC4)cn3)nc2n(C2CCCC2)c1=O [palbociclib, 6-acetyl-8-cyclopentyl-5-methyl-2-[(5-piperazin-1-ylpyridin-2-yl)amino]pyrido[6,5-d]pyrimidin-7-one]","drug interaction with CP-91,149 (coefficient of drug interaction class)",[1]; [10],did not achieve synergy
"O=C(N[C@@H](Cc1ccc(F)cc1)C(=O)N1CCC(O)CC1)c1cc2cc(Cl)ccc2[nH]1 [CP-320626, 5-chloro-N-[(2S)-3-(4-fluorophenyl)-1-(4-hydroxypiperidin-1-yl)-1-oxopropan-2-yl]-1H-indole-2-carboxamide]",cellular metabolism,[2],"inhibited cellular respiration, the PPP, anaplerosis, and synthesis of ribose and fatty acids"
same,sensitivity of cells,[2],sensitive
NC(=O)C1=CN([C@@H]2O[C@H](COP(=O)(O)OP(=O)(O)OC[C@H]3O[C@@H](n4cnc5c(N)ncnc54)[C@H](OP(=O)(O)O)[C@@H]3O)[C@@H](O)[C@H]2O)C=CC1 [NADPH],cell viability of 2-DG-treated cells with the exogenous agent,"[3]; 8505C cells treated with 2-DG, 48 hours, replete media",only rescued cell viability in the CP-treated cells
same,cell viability of CP-treated cells with the exogenous agent,[3],partially rescued; also recorded: only rescued cell viability in the CP-treated cells; also recorded: can rescue ATC cells from CP-mediated loss in cell viability
same,ROS in 2-DG-treated cells with the exogenous agent,"[4]; 8505C cells treated with 2-DG, replete media",reduced ROS in both treatment groups
same,ROS in CP-treated cells with the exogenous agent,[4],ablated; also recorded: reduced ROS in both treatment groups; also recorded: attenuated
"O=C(O)C(=O)CBr [3-BP, 3-bromopyruvic acid]","drug interaction with CP-91,149 (coefficient of drug interaction class)",[1]; [10],failed to achieve synergy
COc1cccc2c1C(=O)c1c(O)c3c(c(O)c1C2=O)C[C@@](O)(C(=O)CO)C[C@@H]3O[C@H]1C[C@H](N)[C@H](O)[C@H](C)O1 [doxorubicin],"drug interaction with CP-91,149 (coefficient of drug interaction class)",[1]; [10],did not achieve synergy
"NC(=O)c1ccc(N)nc1 [6-AN, 6-aminonicotinamide]","drug interaction with CP-91,149 (coefficient of drug interaction class)",[1]; [10],remarkable drug synergy
"COc1cc2nccc(Oc3ccc(NC(=O)NC4CC4)c(Cl)c3)c2cc1C(N)=O [lenvatinib, 4-[3-chloro-4-(cyclopropylcarbamoylamino)phenoxy]-7-methoxyquinoline-6-carboxamide]","drug interaction with CP-91,149 (coefficient of drug interaction class)",[1]; [10],drug additivity rather than synergy
"CNC(=O)c1cc(Oc2ccc(NC(=O)Nc3ccc(Cl)c(C(F)(F)F)c3)cc2)ccn1 [sorafenib, 4-[4-[[4-chloro-3-(trifluoromethyl)phenyl]carbamoylamino]phenoxy]-N-methylpyridine-2-carboxamide]",drug interaction with 6-AN (coefficient of drug interaction class),"[1]; 8505C cells, 48 hours",drug synergy; also recorded: synergistic
same,drug interaction with inhibition of glycolysis,"[1]; 8505C cells, 48 hours",not glycolysis
same,"drug interaction with CP-91,149 (coefficient of drug interaction class)",[1]; [10],high degree of drug synergy; also recorded: profound drug synergy
same,tumor growth,[5],notably stunted
same,"synergy with CP-91,149",[6],displayed synergy
"O=CC[C@@H](O)[C@H](O)[C@H](O)CO [2-DG, 2-deoxyglucose]",cell viability with excess (2 mM) pyruvate,"[3]; 8505C cells, 48 hours",could be rescued
same,cell viability with excess (25 mM) glucose,"[3]; 8505C cells, 48 hours",rescued cell viability
same,cell viability with pyruvate depletion,"[3]; 8505C cells, 48 hours",only significantly impacted the 2-DG-treated cells
same,extracellular acidification rate (ECAR),[7],significantly inhibited
same,reactive oxygen species (ROS) levels,[4]; 8505C ATC cells,only modestly increased ROS levels
same,ROS levels with excess glucose,[4]; 8505C cells,only in CP-treated cells
same,drug interaction with 6-AN (coefficient of drug interaction class),"[1]; 8505C cells, 48 hours",drug antagonism
same,"CDI values in combination with CP-91,149",[1]; [10],~1.0
same,"drug interaction with CP-91,149 (coefficient of drug interaction class)",[1]; [10],drug additivity
same,lactate production,[8],reduced lactate production
same,tumor size,[8],failed to significantly reduce tumor size
CC(=O)N[C@@H](CS)C(=O)O [N-acetylcysteine],cell viability of CP-treated cells with the exogenous agent,[3]; listed as N-acetyl cysteine,can rescue ATC cells from CP-mediated loss in cell viability
same,cell viability of CP-treated cells with the exogenous agent,[3]; listed as NAC,partially rescued
same,ROS in CP-treated cells with the exogenous agent,[4],ablated
same,ROS in CP-treated cells with the exogenous agent,[4]; listed as N-acetyl cysteine,attenuated
CN(C)C(=N)N=C(N)N [metformin],ATC proliferation,[9],limit ATC proliferation in vitro
"Nc1cc(C(F)(F)F)c(-c2cc(N3CCOCC3)nc(N3CCOCC3)n2)cn1 [buparlisib, 5-(2,6-dimorpholin-4-ylpyrimidin-4-yl)-4-(trifluoromethyl)pyridin-2-amine]","drug interaction with CP-91,149 (coefficient of drug interaction class)",[1]; [10],drug additivity rather than synergy
